Data on 5 compounds can be found in ChEMBL document CHEMBL1201862, “PubChem BioAssay data set” (2004).

SMILES strings stand for the structures. Counter-ions that a name gives are not always drawn. Activity calls are given as the source filed them.

In one test the test system is INS1. As to the kind of experiment: INS-1E survival protection against cytokine death – cell-based, luminescence, retest, dose response (AID 449756).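 Also: cell death triggered by IL-1 beta plus TNF-alpha plus IFN-gamma mixture; protective hits raise ATP signal compared with cytokine alone wells.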 Type of test: functional. The conditions noted are these: Rattus norvegicus.
The next test deals with CAAX prenyl protease 2 (Saccharomyces cerevisiae S288c, UniProt Q03530). Type of test: biochemical.
Chain of CAAX prenyl protease 2 (Q03530 whole entry): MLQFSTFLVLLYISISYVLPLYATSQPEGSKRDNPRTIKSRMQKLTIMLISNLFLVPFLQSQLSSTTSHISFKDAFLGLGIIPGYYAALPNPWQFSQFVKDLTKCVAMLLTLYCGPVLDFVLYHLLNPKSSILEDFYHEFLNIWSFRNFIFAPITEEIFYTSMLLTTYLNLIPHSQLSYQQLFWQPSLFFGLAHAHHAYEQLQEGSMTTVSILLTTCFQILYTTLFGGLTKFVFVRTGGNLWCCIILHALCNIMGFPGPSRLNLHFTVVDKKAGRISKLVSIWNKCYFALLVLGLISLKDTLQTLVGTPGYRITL
Test [1] addresses T1, COUP transcription factor 2 (Homo sapiens, UniProt P24468).
T1 sequence (P24468 whole entry): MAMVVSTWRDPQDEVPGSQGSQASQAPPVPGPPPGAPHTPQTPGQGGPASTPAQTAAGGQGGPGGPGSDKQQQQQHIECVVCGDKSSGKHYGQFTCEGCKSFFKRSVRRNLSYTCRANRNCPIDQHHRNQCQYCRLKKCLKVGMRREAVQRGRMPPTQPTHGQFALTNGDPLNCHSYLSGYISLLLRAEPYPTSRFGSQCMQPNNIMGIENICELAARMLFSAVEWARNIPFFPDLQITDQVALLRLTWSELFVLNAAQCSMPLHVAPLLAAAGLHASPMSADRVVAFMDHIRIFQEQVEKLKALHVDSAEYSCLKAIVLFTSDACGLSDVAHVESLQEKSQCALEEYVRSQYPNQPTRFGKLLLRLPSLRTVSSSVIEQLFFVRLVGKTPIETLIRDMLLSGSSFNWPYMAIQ
As to the kind of experiment: Luminescence-based cell-based high throughput dose response assay to identify inhibitors of COUP-TFII (NR2F2). In kind it is functional.

Test [2] has as its target Proto-oncogene tyrosine-protein kinase Src (Homo sapiens, UniProt P12931). Type of test: functional.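 Also: SRC entry within a kinome-wide kinase profiling panel.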
Test [3] addresses Proto-oncogene tyrosine-protein kinase receptor Ret (Homo sapiens, UniProt P07949). Type of test: functional.
The target in test [4] is BDNF/NT-3 growth factors receptor (Homo sapiens, UniProt Q16620). Type of test: functional.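 Also: NTRK2 measured as one member of a broad kinome-wide kinase profiling panel.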
The target in test [5] is cGMP-dependent protein kinase 1 (Homo sapiens, UniProt Q13976). In kind it is functional.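 Also: value from a kinome panel screen with PRKG1 as the panel member.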
Chain of cGMP-dependent protein kinase 1 (Q13976 whole entry): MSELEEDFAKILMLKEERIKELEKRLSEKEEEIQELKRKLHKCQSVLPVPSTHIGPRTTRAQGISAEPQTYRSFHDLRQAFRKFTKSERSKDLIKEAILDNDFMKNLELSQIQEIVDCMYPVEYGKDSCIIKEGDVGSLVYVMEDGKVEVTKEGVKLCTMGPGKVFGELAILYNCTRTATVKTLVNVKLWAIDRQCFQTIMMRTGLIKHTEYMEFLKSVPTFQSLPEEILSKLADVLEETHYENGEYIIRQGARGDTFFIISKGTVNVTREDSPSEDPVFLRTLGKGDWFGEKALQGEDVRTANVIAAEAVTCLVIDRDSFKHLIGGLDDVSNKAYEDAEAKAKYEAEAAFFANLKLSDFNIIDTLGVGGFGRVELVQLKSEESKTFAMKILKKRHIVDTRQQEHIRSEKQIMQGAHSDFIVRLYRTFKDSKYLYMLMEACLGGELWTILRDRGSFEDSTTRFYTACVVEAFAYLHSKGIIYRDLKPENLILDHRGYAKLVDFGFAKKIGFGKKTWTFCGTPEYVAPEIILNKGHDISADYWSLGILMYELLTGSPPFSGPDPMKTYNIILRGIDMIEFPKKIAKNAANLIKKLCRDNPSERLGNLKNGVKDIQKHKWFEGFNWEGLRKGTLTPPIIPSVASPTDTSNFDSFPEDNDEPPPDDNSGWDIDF
Test [6] has as its target RAC-gamma serine/threonine-protein kinase (Homo sapiens, UniProt Q9Y243). Type of test: functional.
For test [7], the target named is Serine/threonine-protein kinase PAK 1 (Homo sapiens, UniProt Q13153). Type of test: functional.
Test [8] addresses MAP kinase-activated protein kinase 5 (Homo sapiens, UniProt Q8IW41). Type of test: functional.
Test [9] concerns the target Casein kinase I isoform gamma-1 (Homo sapiens, UniProt Q9HCP0). In kind it is functional.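 Also: measured as the CSNK1G1 member of a kinome profiling panel.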
Test [10] concerns the target Serine/threonine-protein kinase PLK3 (Homo sapiens, UniProt Q9H4B4). In kind it is functional.
Test [11] addresses Non-receptor tyrosine-protein kinase TYK2 (Homo sapiens, UniProt P29597). Type of test: functional.
Test [12] addresses Dual specificity tyrosine-phosphorylation-regulated kinase 1B (Homo sapiens, UniProt Q9Y463). As to the kind of experiment: Navigating the Kinome. Panel member name: DYRK1B. Type of test: functional.
In test [13] the target is Calcium/calmodulin-dependent protein kinase type II subunit alpha (Homo sapiens, UniProt Q9UQM7). As to the kind of experiment: Navigating the Kinome. Panel member name: CAMK2A. In kind it is functional.
The target in test [14] is Serine/threonine-protein kinase D2 (Homo sapiens, UniProt Q9BZL6). Type of test: functional.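 Also: measured against PRKD2 as one member of a kinome-wide kinase profiling panel.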
Test [15] concerns the target Platelet-derived growth factor receptor alpha (Homo sapiens, UniProt P16234). As to the kind of experiment: Navigating the Kinome. Panel member name: PDGFRA. Type of test: functional.
Test [16] concerns the target cAMP-dependent protein kinase catalytic subunit alpha (Homo sapiens, UniProt P17612). Type of test: functional.
Test [17] concerns the target Cyclin-dependent kinase 8 (Homo sapiens, UniProt P49336). As to the kind of experiment: Navigating the Kinome. Panel member name: CDK8. Type of test: functional.
Test [18] addresses Serine/threonine-protein kinase TBK1 (Homo sapiens, UniProt Q9UHD2). Description: Navigating the Kinome. Panel member name: TBK1. Type of test: functional.
Test [19] deals with Tyrosine-protein kinase receptor TYRO3 (Homo sapiens, UniProt Q06418). In kind it is functional.
Chain of Tyrosine-protein kinase receptor TYRO3 (Q06418 whole entry): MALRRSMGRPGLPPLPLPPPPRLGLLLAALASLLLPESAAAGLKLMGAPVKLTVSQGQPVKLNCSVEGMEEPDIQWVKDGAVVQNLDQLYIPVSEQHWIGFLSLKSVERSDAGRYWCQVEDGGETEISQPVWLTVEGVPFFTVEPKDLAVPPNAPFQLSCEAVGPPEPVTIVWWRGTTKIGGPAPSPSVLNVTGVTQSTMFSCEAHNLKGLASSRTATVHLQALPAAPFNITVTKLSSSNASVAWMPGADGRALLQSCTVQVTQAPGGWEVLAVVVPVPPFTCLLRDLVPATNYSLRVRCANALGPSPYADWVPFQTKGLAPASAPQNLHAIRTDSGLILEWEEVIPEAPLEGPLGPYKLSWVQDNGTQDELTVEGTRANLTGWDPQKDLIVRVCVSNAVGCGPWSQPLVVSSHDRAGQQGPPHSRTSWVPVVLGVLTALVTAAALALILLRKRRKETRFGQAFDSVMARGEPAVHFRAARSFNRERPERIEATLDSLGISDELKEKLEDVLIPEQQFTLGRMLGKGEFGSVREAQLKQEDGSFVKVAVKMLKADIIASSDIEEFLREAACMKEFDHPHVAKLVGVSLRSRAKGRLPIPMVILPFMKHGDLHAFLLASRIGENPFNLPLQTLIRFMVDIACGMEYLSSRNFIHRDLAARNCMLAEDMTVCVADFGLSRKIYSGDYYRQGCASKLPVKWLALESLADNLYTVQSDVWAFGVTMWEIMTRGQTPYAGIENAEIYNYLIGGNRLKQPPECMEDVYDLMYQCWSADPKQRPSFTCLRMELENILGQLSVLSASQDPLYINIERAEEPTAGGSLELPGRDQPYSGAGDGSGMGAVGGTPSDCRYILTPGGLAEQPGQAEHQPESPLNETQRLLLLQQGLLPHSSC
The target in test [20] is Testis-specific serine/threonine-protein kinase 1 (Homo sapiens, UniProt Q9BXA7). Type of test: functional.
The target of test [21] is Proto-oncogene tyrosine-protein kinase ROS (Homo sapiens, UniProt P08922). In kind it is functional.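 Also: ROS1 tested as one member of a kinome-wide kinase panel.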
In test [22] the target is Tyrosine-protein kinase Lyn (Homo sapiens, UniProt P07948). Type of test: functional.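 Also: lyn as one member of a kinase panel.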
In test [23] the target is Casein kinase I isoform alpha (Homo sapiens, UniProt P48729). In kind it is functional.
The target of test [24] is Cyclin-dependent kinase 7 (Homo sapiens, UniProt P50613). In kind it is functional.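 Also: value comes from a kinome-wide kinase profiling panel in which CDK7 is one member.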
In test [25] the target is Mitogen-activated protein kinase 9 (Homo sapiens, UniProt P45984). In kind it is functional.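 Also: value from a kinome panel profiling assay, MAPK9 panel entry.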
The target of test [26] is Serine/threonine-protein kinase 17A (Homo sapiens, UniProt Q9UEE5). Type of test: functional.
In test [27] the target is Tyrosine-protein kinase Fyn (Homo sapiens, UniProt P06241). In kind it is functional.
The target in test [28] is Induced myeloid leukemia cell differentiation protein Mcl-1 (Homo sapiens, UniProt Q07820). Description: blockers of MCL1 binding to BIM peptide – biochemical, fluorescence polarization, BIM-BH3 peptide, 1536-well, dose response (AID 2217).
For test [29], the target named is T2, Mannose-6-phosphate isomerase (Homo sapiens, UniProt P34949).
T2 sequence (P34949 whole entry): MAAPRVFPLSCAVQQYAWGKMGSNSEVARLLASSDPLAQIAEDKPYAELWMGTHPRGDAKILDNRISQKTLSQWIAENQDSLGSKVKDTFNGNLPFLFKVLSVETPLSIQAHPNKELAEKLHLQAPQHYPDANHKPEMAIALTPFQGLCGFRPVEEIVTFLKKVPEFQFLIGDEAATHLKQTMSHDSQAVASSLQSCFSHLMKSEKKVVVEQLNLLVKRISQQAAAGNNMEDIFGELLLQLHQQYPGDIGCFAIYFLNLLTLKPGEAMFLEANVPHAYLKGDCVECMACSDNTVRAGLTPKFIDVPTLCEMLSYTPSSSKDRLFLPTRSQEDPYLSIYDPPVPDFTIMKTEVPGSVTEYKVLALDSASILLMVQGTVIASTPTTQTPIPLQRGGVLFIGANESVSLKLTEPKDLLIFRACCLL
As to the kind of experiment: MPI inhibition at elevated mannose 6-phosphate – biochemical, fluorescence intensity, high mannose 6-phosphate, primary screen (AID 1220).

Test [30] has as its target T3, SUMO-activating enzyme (Homo sapiens, UniProt Q9UBT2). Description: blockers of UBC9-mediated SUMO conjugation – biochemical, AlphaScreen, SUMOylation inhibitor project, confirmation (AID 2018). In kind it is functional.
Test [31] deals with T3, SUMO-activating enzyme. As to the kind of experiment: blockers of SAE1/SAE2–UBC9 SUMO transfer – biochemical, HTRF, uHTS, primary screen (AID 2006). In kind it is protein-complex assay.

T3 sequence (Q9UBE0 whole entry): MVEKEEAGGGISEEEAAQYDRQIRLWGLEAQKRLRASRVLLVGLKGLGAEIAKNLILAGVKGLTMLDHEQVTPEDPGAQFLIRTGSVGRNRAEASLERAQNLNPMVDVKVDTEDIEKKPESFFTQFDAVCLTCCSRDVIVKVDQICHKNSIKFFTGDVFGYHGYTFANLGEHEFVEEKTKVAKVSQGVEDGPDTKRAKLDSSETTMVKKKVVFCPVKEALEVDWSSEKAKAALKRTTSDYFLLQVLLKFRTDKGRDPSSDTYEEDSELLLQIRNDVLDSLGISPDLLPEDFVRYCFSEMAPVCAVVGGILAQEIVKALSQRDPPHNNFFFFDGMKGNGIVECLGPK
T3 sequence (Q9UBT2 whole entry): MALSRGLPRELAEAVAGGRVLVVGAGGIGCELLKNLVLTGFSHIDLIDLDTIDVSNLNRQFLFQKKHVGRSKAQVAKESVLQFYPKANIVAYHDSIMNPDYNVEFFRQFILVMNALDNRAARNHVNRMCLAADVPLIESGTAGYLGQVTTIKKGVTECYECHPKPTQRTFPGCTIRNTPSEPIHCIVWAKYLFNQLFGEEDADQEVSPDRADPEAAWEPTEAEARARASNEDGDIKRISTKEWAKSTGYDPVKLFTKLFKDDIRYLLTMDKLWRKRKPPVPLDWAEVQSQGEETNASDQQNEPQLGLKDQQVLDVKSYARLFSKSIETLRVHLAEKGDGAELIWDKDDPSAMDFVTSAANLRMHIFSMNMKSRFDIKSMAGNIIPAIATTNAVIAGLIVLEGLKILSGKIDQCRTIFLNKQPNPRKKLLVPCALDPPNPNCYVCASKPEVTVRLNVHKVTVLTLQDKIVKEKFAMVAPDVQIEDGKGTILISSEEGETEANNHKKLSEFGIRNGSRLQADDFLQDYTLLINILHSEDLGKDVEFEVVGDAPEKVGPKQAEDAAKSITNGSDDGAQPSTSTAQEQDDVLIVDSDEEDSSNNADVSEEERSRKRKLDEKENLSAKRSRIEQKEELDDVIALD
Chain of Casein kinase I isoform gamma-1 (Q9HCP0 whole entry, canonical isoform): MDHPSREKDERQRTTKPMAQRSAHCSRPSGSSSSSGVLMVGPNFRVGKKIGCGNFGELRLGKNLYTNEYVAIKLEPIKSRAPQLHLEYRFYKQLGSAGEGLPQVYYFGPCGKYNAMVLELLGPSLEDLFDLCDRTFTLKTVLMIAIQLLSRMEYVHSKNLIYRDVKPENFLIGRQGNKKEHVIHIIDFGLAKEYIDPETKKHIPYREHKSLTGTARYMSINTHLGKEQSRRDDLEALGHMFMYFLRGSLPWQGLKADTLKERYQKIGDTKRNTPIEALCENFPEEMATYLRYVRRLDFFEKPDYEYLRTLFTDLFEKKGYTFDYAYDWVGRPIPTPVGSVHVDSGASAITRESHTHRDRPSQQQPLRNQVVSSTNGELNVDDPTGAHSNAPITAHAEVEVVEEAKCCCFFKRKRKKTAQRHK
Chain of Serine/threonine-protein kinase PLK3 (Q9H4B4 whole entry): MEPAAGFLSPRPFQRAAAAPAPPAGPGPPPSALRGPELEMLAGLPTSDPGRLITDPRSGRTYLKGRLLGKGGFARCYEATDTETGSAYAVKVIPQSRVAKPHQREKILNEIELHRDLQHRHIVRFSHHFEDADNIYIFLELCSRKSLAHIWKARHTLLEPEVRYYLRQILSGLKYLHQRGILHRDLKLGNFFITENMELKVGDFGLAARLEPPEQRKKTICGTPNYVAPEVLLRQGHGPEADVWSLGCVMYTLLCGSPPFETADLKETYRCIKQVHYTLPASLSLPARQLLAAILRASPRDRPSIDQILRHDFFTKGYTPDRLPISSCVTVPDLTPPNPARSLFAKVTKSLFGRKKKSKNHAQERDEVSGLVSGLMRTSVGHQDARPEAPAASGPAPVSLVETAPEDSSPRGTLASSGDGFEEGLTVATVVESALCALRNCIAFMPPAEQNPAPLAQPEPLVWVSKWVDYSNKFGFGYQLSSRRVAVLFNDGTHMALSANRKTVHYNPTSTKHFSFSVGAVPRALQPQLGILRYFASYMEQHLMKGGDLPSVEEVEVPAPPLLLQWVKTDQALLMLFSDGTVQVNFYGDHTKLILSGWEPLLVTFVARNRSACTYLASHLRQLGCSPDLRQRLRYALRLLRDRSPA
Chain of Proto-oncogene tyrosine-protein kinase receptor Ret (P07949 whole entry): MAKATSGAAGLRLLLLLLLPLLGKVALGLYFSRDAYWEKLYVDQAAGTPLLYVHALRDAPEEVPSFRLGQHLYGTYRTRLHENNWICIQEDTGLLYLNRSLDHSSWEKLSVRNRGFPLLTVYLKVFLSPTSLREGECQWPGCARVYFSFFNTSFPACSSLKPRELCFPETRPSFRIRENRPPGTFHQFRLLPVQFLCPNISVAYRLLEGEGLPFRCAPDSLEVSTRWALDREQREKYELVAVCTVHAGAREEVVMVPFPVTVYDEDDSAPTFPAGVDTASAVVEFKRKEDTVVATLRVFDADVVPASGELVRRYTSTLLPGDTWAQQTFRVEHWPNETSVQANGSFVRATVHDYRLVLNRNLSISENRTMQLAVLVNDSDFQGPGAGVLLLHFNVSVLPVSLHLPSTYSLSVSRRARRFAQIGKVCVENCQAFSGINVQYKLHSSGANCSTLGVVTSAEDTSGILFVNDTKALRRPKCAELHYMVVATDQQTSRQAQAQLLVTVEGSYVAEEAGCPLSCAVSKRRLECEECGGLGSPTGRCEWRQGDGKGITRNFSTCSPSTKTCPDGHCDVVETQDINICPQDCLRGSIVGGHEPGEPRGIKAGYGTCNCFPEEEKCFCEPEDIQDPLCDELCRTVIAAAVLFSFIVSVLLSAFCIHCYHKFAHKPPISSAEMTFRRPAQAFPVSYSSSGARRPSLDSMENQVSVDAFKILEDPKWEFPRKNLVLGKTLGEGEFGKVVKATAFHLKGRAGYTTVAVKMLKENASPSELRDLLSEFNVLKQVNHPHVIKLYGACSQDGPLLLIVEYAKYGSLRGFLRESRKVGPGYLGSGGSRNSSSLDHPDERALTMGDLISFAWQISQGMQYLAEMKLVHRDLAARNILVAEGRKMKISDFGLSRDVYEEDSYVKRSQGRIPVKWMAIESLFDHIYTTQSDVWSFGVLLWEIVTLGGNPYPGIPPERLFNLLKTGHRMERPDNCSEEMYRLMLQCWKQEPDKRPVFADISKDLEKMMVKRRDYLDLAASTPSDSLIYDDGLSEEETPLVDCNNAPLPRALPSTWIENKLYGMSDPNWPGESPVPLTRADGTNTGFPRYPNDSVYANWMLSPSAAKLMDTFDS

On to `CCCCCCCCCCOC(=O)C[n+]1c(COc2ccc(C)cc2)n(C)c2ccccc21`, for which the figures for the AC50 with INS1 and at CAAX prenyl protease 2 were 3.4 µM (active) and 5.51 µM (active), respectively.

In the case of `CCN1/C(=C\c2ccc3ccccc3[n+]2CC)Sc2cc(C)ccc21`, the IC50 in test [1] was 2.75 µM (active).

Turning to `CN1CCN(c2nc(C3=C(c4c[nH]c5ccccc45)C(=O)NC3=O)c3ccccc3n2)CC1` [SOTRASTAURIN], the Ki was > 2 µM (inactive) in test [2]; > 2 µM (inactive) in test [3]; > 3.98 µM (inactive) in [4]; 0.794 µM (active) in [5]; > 10 µM (inactive) in test [6]; > 10 µM (inactive) in [7]. The Ki in [8] was > 1.58 µM (inactive); in [9], > 6.31 µM (inactive); in [10] it was > 7.94 µM (inactive); in test [11], > 2 µM (inactive); in test [12], > 2.51 µM (inactive); in test [13] it was 3.16 µM (active). Also, the Ki in [14] was > 10 µM (inactive); in [15], > 2.51 µM (inactive); in test [16], > 1.26 µM (inactive); in [17], > 3.98 µM (inactive); in test [18] it was > 3.16 µM (inactive); in test [19], > 2.51 µM (inactive). Moreover, the Ki is > 1.58 µM (inactive) in test [20]; > 2 µM (inactive) in test [21]; > 1.58 µM (inactive) in [22]; > 5.01 µM (inactive) in [23]; > 3.98 µM (inactive) in test [24]; > 3.98 µM (inactive) in test [25]. Also, the Ki in [26] is > 3.98 µM (inactive); in test [27] it was > 3.16 µM (inactive).

As for `CC[C@@H](CO)NC(=O)[C@@H]1C=C2c3cccc4c3c(cn4C)C[C@H]2N(C)C1` [METHYSERGIDE MALEATE], the IC50 in test [28] is listed as 20.4 µM (not active).

Take `CCC(C)n1c(NC(=O)c2ccccc2)c(C#N)c2nc3ccccc3nc21` (stereo not drawn): the IC50 in test [29] was > 50 µM (not active); at SUMO-activating enzyme [30], 3.51 µM (active); at SUMO-activating enzyme [31], 8.4 µM (active).
